Starred links: 1 amine or outer side, 2 acyl side, 3 side chain; linkers in the order of their positions; H or OH if unused. Positions of bridges follow the written chain, without caps; N, C: chain ends. Residues, ends and D or L forms follow the SMILES beside them. *: point of attachment. C18 diacid = O=C(O)CCCCCCCCCCCCCCCCC(=O)*; γGlu = O=C(O)[C@H](CCC(=O)[*:2])N[*:1]; AEEA = NCCOCCOCC(=O)O
Assay: Accelerated chemical stability (RP-UPLC recovery and LCMS degradation pattern, 37° C.)
Type: physicochemical
Design: Isomers TZ / Isomers 2 W / Loss of 18 amu TZ / Loss of 18 amu 2 W / Fragments TZ / Fragments 2 W / Fragments 1 W / Fragments 3 W / Fragments 4 W / Fragments 5 W / Fragments 6 W / Others 1 W / Others 3 W / Others 4 W / Others 5 W / Others 6 W / Isomers 1 W / Isomers 3 W / Isomers 4 W / Isomers 5 W / Isomers 6 W / Loss of 18 amu 1 W / Loss of 18 amu 3 W / Loss of 18 amu 4 W / Loss of 18 amu 5 W / Loss of 18 amu 6 W: unit not given here
Conditions: LCMS, 250 mM glycerol; for Fragments 2 W / Isomers 2 W / Loss of 18 amu 2 W / Others 2 W: 2 weeks at 37° C.; for Fragments TZ / Isomers TZ / Loss of 18 amu TZ / Others TZ: time zero
Description: In order to determine the chemical stability of CNP compounds in formulation, samples of CNP compounds in buffer were exposed to accelerated chemical degradation by heating. The stability of a given peptide was assessed by measuring recovery of intact peptide by quantification by RP-UPLC. To assess the chemical degradation pattern samples were also analysed by LC-MS.
Sample preparation: Samples for the 2 week study were prepared according to the principles described in Example 5.
Samples for the 6 week study were prepared by dissolving lyophilized peptide in buffer (8 mM phosphate, 250 mM glycerol, pH 7.4) to a nominal peptide concentration of 5000 nmol/ml followed by pH adjustment with 0.1 N HCl to pH 6.5.
Incubation: For the 2 week study a time-zero (TZ) sample was pulled and stored at −18° C. and the remaining volume was incubated at 37° C. Samples were pulled and stored at −18° C. after 2 weeks of incubation. Frozen samples were thawed, diluted to about 200 nmol/mL and the extent of chemical degradation was determined using LCMS as described.
For the 6 week study a time-zero (TZ) sample was pulled and stored at −18° C. and the remaining volume was incubated at 37° C. Samples were pulled on a weekly basis and stored at −18° C. until the last sampling time point at 6 weeks. Frozen samples were thawed, diluted to about 200 nmol/mL and the extent of chemical degradation was determined using RP-UPLC and LCMS as described.
Analysis of peptide recovery by RP-UPLC: The RP-UPLC method was performed on a Waters ACQUITY H-CLASS UPLC system fitted with a PDA detector. Separation was carried out on an ACQUITY UPLC BEH C8 Column (130 Å, 1.7 μm, 2.1 mm×150 mm) operating at a column temperature of 50° C. with eluent A (19.59 mM NH4H2PO4 41.71 mM (NH4)2HPO4, pH 6.5 and MeCN 9:1 v:v) and eluent B (80% MeCN in water). UV-detection was carried out at 214 nm. The analysis was performed by injection of 3 μL of sample onto the column which was eluted with a 1-step linear gradient of eluents A and B from 27 to 30% B over 20 minutes followed by a wash at 95% B over 2 minutes followed by a re-equilibration phase for 7 minutes at a constant flow rate of 0.3 mL/min. This yielded an analysis time of 30 minutes per sample. The area of the peak corresponding to intact CNP compound was given on a percentage scale relative to the total peptide peak area.
Analysis of chemical degradation patterns by LCMS: Samples were analysed on a […] UPLC from Thermo Scientific, using a Waters Acquity C18 reversed-phase column, 300 Å, […] particles 1 mm×150 mm. The compounds were separated by a linear gradient of solvent B from 5% to 55% over 48 minutes, using solvent A: water, 0.1% formic acid with 0.02% TFA and solvent B: acetonitrile, 0.1% formic acid with 0.02% TFA. Mass spectra were acquired by a Q Exactive Plus hybrid Quadrupole-Orbitrap mass spectrometer, BioPharma option (Thermo Scientific) interfaced with H-ESI II ion source. Data acquisitions were performed with a m/z 500 to 2000 scan range and a resolution of 30000.
The data list was aggregated into a summed table of the compounds. The table headers were defined as follows: […]
Results: The results from LCMS analysis of a 2 week accelerated degradation study on several CNP compounds of the present invention are summarised in Table 12. The results from RP-UPLC and LCMS analysis of a 6 week accelerated degradation study on CNP compound 9482 (Chem. 137) is summarised in Table 13 and Table 14 respectively.

SMILES	Fragments 2 W (8 mM sodium phosphate, pH 6.5)	Isomers 2 W (8 mM sodium phosphate, pH 6.5)	Loss of 18 amu 2 W (8 mM sodium phosphate, pH 6.5)	Others 2 W (8 mM sodium phosphate, pH 6.5) [%]	Fragments TZ (8 mM sodium phosphate, pH 6.5)	Isomers TZ (8 mM sodium phosphate, pH 6.5)	Loss of 18 amu TZ (8 mM sodium phosphate, pH 6.5)	Others TZ (8 mM sodium phosphate, pH 6.5) [%]	Fragments 2 W (5 mM sodium acetate, pH 4)	Isomers 2 W (5 mM sodium acetate, pH 4)	Loss of 18 amu 2 W (5 mM sodium acetate, pH 4)	Others 2 W (5 mM sodium acetate, pH 4) [%]	Fragments TZ (5 mM sodium acetate, pH 4)	Isomers TZ (5 mM sodium acetate, pH 4)	Loss of 18 amu TZ (5 mM sodium acetate, pH 4)	Others TZ (5 mM sodium acetate, pH 4) [%]
CC[C@H](C)[C@@H]1NC(=O)[C@H](CCCNC(=N)N)NC(=O)[C@H](CC(=O)O)NC(=O)[C@H](CC(C)C)NC(=O)[C@@H]2CCCN2C(=O)[C@H](CC(C)C)NC(=O)CNC(=O)[C@H](Cc2ccccc2)NC(=O)[C@@H](NC(=O)CNC(=O)[C@H](CCC(N)=O)NC(=O)[C@H](CO)NC(=O)[C@H](CC(C)C)NC(=O)CNC(=O)[C@H](CCCCN)NC(=O)[C@H](CCCCN)NC(=O)[C@H](CCC(N)=O)NC(=O)[C@H](C)NC(=O)CNC(=O)[C@H](CCCCN)NC(=O)[C@H](Cc2ccc(O)cc2)NC(=O)[C@H](CCCCN)NC(=O)[C@H](CCCNC(=N)N)NC(=O)[C@H](C)NC(=O)COCCOCCNC(=O)COCCOCCNC(=O)COCCOCCNC(=O)COCCOCCNC(=O)CC[C@H](NC(=O)CC[C@H](NC(=O)CC[C@H](NC(=O)CC[C@H](NC(=O)CC[C@H](NC(=O)CCCCCCCCCCCCCCCCC(=O)O)C(=O)O)C(=O)O)C(=O)O)C(=O)O)C(=O)O)CSSC[C@@H](C(=O)O)NC(=O)CNC(=O)[C@H](CC(C)C)NC(=O)CNC(=O)[C@H](CO)NC(=O)[C@H](CC(C)C)NC(=O)[C@H](CO)NC(=O)CNC1=O [Compound 9407] ({C18 diacid-γGlu-γGlu-γGlu-γGlu-γGlu-AEEA-AEEA-AEEA-AEEA}-ARKYKGAQKKGLSQGCFGLPLDRIGSLSGLGC-OH; disulfide 16-32)	0.7	1.1	0	0.3	0	0	0	0.1	–	–	–	–	–	–	–	–
CC[C@H](C)[C@@H]1NC(=O)[C@H](CCCNC(=N)N)NC(=O)[C@H](CC(=O)O)NC(=O)[C@H](CC(C)C)NC(=O)[C@@H]2CCCN2C(=O)[C@H](CC(C)C)NC(=O)CNC(=O)[C@H](Cc2ccccc2)NC(=O)[C@@H](NC(=O)CNC(=O)[C@H](CCC(N)=O)NC(=O)[C@H](CO)NC(=O)CNC(=O)CNC(=O)[C@H](CCCCN)NC(=O)[C@H](CCCCN)NC(=O)[C@H](CCC(N)=O)NC(=O)[C@H](C)NC(=O)CNC(=O)[C@H](CCCCN)NC(=O)[C@H](Cc2ccc(O)cc2)NC(=O)COCCOCCNC(=O)COCCOCCNC(=O)COCCOCCNC(=O)COCCOCCNC(=O)CC[C@H](NC(=O)CC[C@H](NC(=O)CCCCCCCCCCCCCCCCC(=O)O)C(=O)O)C(=O)O)CSSC[C@@H](C(=O)O)NC(=O)CNC(=O)[C@H](CC(C)C)NC(=O)CNC(=O)[C@H](CO)NC(=O)[C@H](CC(C)C)NC(=O)[C@H](CO)NC(=O)CNC1=O [Compound 9435] ({C18 diacid-γGlu-γGlu-AEEA-AEEA-AEEA-AEEA}-YKGAQKKGGSQGCFGLPLDRIGSLSGLGC-OH; disulfide 13-29)	–	–	–	–	–	–	–	–	0	0.6	4.1	0	0	0	0	0
CC[C@H](C)[C@@H]1NC(=O)[C@H](CCCNC(=N)N)NC(=O)[C@H](CC(=O)O)NC(=O)[C@H](CC(C)C)NC(=O)[C@@H]2CCCN2C(=O)[C@H](CC(C)C)NC(=O)CNC(=O)[C@H](Cc2ccccc2)NC(=O)[C@@H](NC(=O)CNC(=O)[C@H](CCC(N)=O)NC(=O)[C@H](CO)NC(=O)[C@H](CC(C)C)NC(=O)CNC(=O)[C@H](CCCCN)NC(=O)[C@H](CCCCN)NC(=O)[C@H](CCC(N)=O)NC(=O)[C@H](C)NC(=O)CNC(=O)[C@H](CCCCN)NC(=O)[C@H](Cc2ccc(O)cc2)NC(=O)COCCOCCNC(=O)COCCOCCNC(=O)COCCOCCNC(=O)COCCOCCNC(=O)CC[C@H](NC(=O)CC[C@H](NC(=O)CC[C@H](NC(=O)CCCCCCCCCCCCCCCCC(=O)O)C(=O)O)C(=O)O)C(=O)O)CSSC[C@@H](C(=O)O)NC(=O)CNC(=O)[C@H](CC(C)C)NC(=O)CNC(=O)[C@H](CO)NC(=O)[C@H](CC(C)C)NC(=O)[C@H](CO)NC(=O)CNC1=O [Compound 9480] ({C18 diacid-γGlu-γGlu-γGlu-AEEA-AEEA-AEEA-AEEA}-YKGAQKKGLSQGCFGLPLDRIGSLSGLGC-OH; disulfide 13-29)	0	0	0	0.6	0	0	0	0	–	–	–	–	–	–	–	–
CC[C@H](C)[C@@H]1NC(=O)[C@H](CCCNC(=N)N)NC(=O)[C@H](CC(=O)O)NC(=O)[C@H](CC(C)C)NC(=O)[C@@H]2CCCN2C(=O)[C@H](CC(C)C)NC(=O)CNC(=O)[C@H](Cc2ccccc2)NC(=O)[C@@H](NC(=O)CNC(=O)[C@H](CO)NC(=O)[C@H](CO)NC(=O)[C@H](CC(C)C)NC(=O)CNC(=O)[C@H](CCCCN)NC(=O)[C@H](CCCCN)NC(=O)[C@H](CCC(N)=O)NC(=O)[C@H](C)NC(=O)CNC(=O)[C@H](CCCCN)NC(=O)[C@H](Cc2ccc(O)cc2)NC(=O)[C@H](CCCCN)NC(=O)[C@H](CCCNC(=N)N)NC(=O)[C@H](C)NC(=O)[C@H](CCC(N)=O)NC(=O)[C@@H]2CCCN2C(=O)[C@H](Cc2c[nH]cn2)NC(=O)[C@H](CCC(=O)O)NC(=O)[C@H](CCC(N)=O)NC(=O)CC[C@H](NC(=O)CC[C@H](NC(=O)CC[C@H](NC(=O)CC[C@H](NC(=O)CC[C@H](NC(=O)CCCCCCCCCCCCCCCCC(=O)O)C(=O)O)C(=O)O)C(=O)O)C(=O)O)C(=O)O)CSSC[C@@H](C(=O)O)NC(=O)CNC(=O)[C@H](CC(C)C)NC(=O)CNC(=O)[C@H](CO)NC(=O)[C@H](CC(C)C)NC(=O)[C@H](CO)NC(=O)CNC1=O [Compound 9482] ({C18 diacid-γGlu-γGlu-γGlu-γGlu-γGlu}-QEHPQARKYKGAQKKGLSSGCFGLPLDRIGSLSGLGC-OH; disulfide 21-37)	0	0	0	0.3	0	0	0	0	–	–	–	–	–	–	–	–

— patent publication US20240209028A1, “CNP COMPOUNDS” (priority 2022, published 2024)
